According to publication PMC7580763, “Novel insights on saccharin- and acesulfame-based carbonic anhydrase inhibitors: design, synthesis, modelling investigations and biological activity evaluation” (Journal of Enzyme Inhibition and Medicinal Chemistry, 2020):
Values joined by “and” are separate entries in the source; they are usually repeats but may differ in a detail not shown here. Identical values can stand only once. Like-named read-outs stand apart in the source and are kept apart here.

Legend:
Format in all cases: biochemical
hCA I = hCA I (Homo sapiens, UniProt P00915); assay: CA inhibition, stopped-flow CO2 hydrase assay, hCA I
Procedure: (§1) An Applied Photophysics stopped-flow instrument has been used for assaying the CA-catalyzed CO2 hydration activity. […] The initial rates of the CA-catalysed CO2 hydration reaction were followed for a period of 10−100 s. The CO2 concentrations ranged from 1.7 to 17 mM for the determination of the kinetic parameters and inhibition constants. […] The uncatalyzed rates were determined in the same manner and subtracted from the total observed ones. Stock solutions of each inhibitor (0.1 mM) were prepared in distilled − deionized water and dilutions up to 0.01 nM were done thereafter with distilled − deionized water. Inhibitor and enzyme solutions were preincubated together for 15 min at room temperature prior to assay to allow for the formation of the E−I complex. The inhibition constants were obtained by nonlinear least-squares methods using the Cheng-Prusoff equation and represent the mean from at least three different determinations. […] Human CA isoforms were recombinant enzymes obtained in-house as reported earlier.

hCA IX = hCA IX (Homo sapiens, UniProt Q16790); assay: CA inhibition, stopped-flow CO2 hydrase assay, hCA IX
Procedure: as §1

hCA II = hCA II (Homo sapiens, UniProt P00918); assay: CA inhibition, stopped-flow CO2 hydrase assay, hCA II
Procedure: as §1

hCA XII = hCA XII (Homo sapiens, UniProt O43570); assay: CA inhibition, stopped-flow CO2 hydrase assay, hCA XII
Procedure: as §1

[1] = Table 2, acesulfame-based derivatives, mean from 3 different assays, errors ± 5–10%
[2] = Table 1, saccharin-based derivatives, recombinant enzyme, 15 min preincubation, pH 7.5

Chain of hCA I (P00915 whole entry): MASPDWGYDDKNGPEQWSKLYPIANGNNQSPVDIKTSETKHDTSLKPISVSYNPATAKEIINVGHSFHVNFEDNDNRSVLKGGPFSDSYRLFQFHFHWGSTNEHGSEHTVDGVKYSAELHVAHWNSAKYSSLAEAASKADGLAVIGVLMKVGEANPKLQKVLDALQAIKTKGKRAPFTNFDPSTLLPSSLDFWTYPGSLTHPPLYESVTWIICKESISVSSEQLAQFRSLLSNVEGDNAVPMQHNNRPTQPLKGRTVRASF
Chain of hCA XII (O43570 25-354): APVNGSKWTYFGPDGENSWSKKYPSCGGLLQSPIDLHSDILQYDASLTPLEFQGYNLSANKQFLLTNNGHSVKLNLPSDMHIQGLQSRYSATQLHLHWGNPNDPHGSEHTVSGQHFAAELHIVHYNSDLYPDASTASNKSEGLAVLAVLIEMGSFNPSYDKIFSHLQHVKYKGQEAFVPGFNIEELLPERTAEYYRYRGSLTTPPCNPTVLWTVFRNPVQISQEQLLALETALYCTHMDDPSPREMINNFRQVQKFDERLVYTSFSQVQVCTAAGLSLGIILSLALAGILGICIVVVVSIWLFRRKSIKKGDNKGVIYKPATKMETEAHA

Ki (hCA I; [2]) [µM] | Ki (hCA IX; [2]) [µM] | Ki (hCA II; [2]) [µM] | Ki (hCA XII; [2]) [µM] | SMILES | also measured
 |  |  |  | COc1ccc(-n2cc(COC3=NS(=O)(=O)OC(C)=C3)nn2)cc1 [Compound 59] | Ki (hCA I; [1]): > 1000 µM; Ki (hCA IX; [1]): > 1000 µM; Ki (hCA II; [1]): > 1000 µM; Ki (hCA XII; [1]): > 1000 µM
 |  |  |  | CC1=CC(OCc2cn(Cc3ccccc3)nn2)=NS(=O)(=O)O1 [Compound 60] | Ki (hCA I; [1]): > 100 µM; Ki (hCA IX; [1]): 1.1 µM; Ki (hCA II; [1]): > 100 µM; Ki (hCA XII; [1]): > 100 µM
> 1000 | 428 | > 1000 | > 1000 | COC(=O)c1ccccc1S(=O)(=O)Nc1ccccc1Cl [Compound 7] | 
> 1000 | 0.39 | > 1000 |  | CC(C)=CCN1C(=O)c2ccccc2S1(=O)=O [Compound 1] | Ki (hCA I): > 1000 µM; Ki (hCA IX): 0.39 µM; Ki (hCA II): > 1000 µM; Ki (hCA XII): 0.23 µM
 |  |  |  | CC1=CC(OCc2cn(-c3ccc(Cl)cc3)nn2)=NS(=O)(=O)O1 [Compound 57] | Ki (hCA I; [1]): > 1000 µM; Ki (hCA IX; [1]): > 1000 µM; Ki (hCA II; [1]): > 1000 µM; Ki (hCA XII; [1]): > 1000 µM
> 1000 | > 1000 | > 1000 | > 1000 | Cc1ccc(NS(=O)(=O)c2ccccc2C(=O)O)cc1 [Compound 25] | 
 |  |  |  | CC1=CC(=O)N(Cc2cn(-c3ccccc3)nn2)S(=O)(=O)O1 [Compound 53] | Ki (hCA I; [1]): > 1000 µM; Ki (hCA IX; [1]): > 1000 µM; Ki (hCA II; [1]): > 1000 µM; Ki (hCA XII; [1]): > 1000 µM
> 1000 | 927 | > 1000 | > 1000 | O=C(O)c1ccccc1S(=O)(=O)NCc1cn(-c2ccccc2)nn1 [Compound 47] | inhibitory activity against hCA I, in words (hCA I): ineffective; inhibitory activity against hCA IX, in words (hCA IX): ineffective; inhibitory activity against hCA II, in words (hCA II): ineffective; inhibitory activity against hCA XII, in words (hCA XII): ineffective
 |  |  |  | CC1=CC(=O)N(Cc2cn(-c3ccc(Cl)cc3)nn2)S(=O)(=O)O1 [Compound 54] | Ki (hCA I; [1]): > 1000 µM; Ki (hCA IX; [1]): > 1000 µM; Ki (hCA II; [1]): > 1000 µM; Ki (hCA XII; [1]): > 1000 µM
> 1000 | > 1000 | > 1000 | > 1000 | O=C1c2ccccc2S(=O)(=O)N1Cc1cn(-c2ccccc2)nn1 [Compound 41] | Ki (hCA I): > 1000 µM; Ki (hCA IX): > 1000 µM; Ki (hCA II): > 1000 µM; Ki (hCA XII): > 1000 µM
> 1000 | 93.3 | > 1000 | > 1000 | COC(=O)c1ccccc1S(=O)(=O)Nc1ccc(OC)cc1 [Compound 16] | 
> 1000 | 955 | > 1000 | > 1000 | COC(=O)c1ccccc1S(=O)(=O)Nc1ccc(Cl)cc1 [Compound 8] | 
 |  |  |  | CC1=CC(OCc2cn(-c3ccc(C)cc3)nn2)=NS(=O)(=O)O1 [Compound 56] | Ki (hCA I; [1]): > 1000 µM; Ki (hCA IX; [1]): > 1000 µM; Ki (hCA II; [1]): > 1000 µM; Ki (hCA XII; [1]): > 1000 µM
> 1000 | 666 | > 1000 | > 1000 | COc1ccc(-n2cc(CN3C(=O)c4ccccc4S3(=O)=O)nn2)cc1 [Compound 45] | 
 |  |  |  | CC1=CC(=O)N(Cc2ccccc2)S(=O)(=O)O1 [Compound 51] | Ki (hCA I; [1]): > 1000 µM; Ki (hCA IX; [1]): 2.7 µM; Ki (hCA II; [1]): > 1000 µM; Ki (hCA XII; [1]): 0.27 µM
> 1000 | 563 | > 1000 | > 1000 | COC(=O)c1ccccc1S(=O)(=O)Nc1ccc(C(F)(F)F)cc1 [Compound 10] | 
> 1000 | > 1000 | > 1000 | > 1000 | COc1ccc(N2C(=O)c3ccccc3S2(=O)=O)cc1 [Compound 40] | 
> 1000 | > 1000 | > 1000 | > 1000 | O=C1c2ccccc2S(=O)(=O)N1c1ccc(C(F)(F)F)cc1 [Compound 34] | 

Ki (hCA I; [2]) [µM] | Ki (hCA IX; [2]) [µM] | Ki (hCA II; [2]) [µM] | Ki (hCA XII; [2]) [µM] | SMILES | also measured
> 1000 | > 1000 | > 1000 | > 1000 | COc1ccc(NS(=O)(=O)c2ccccc2C(=O)O)cc1 [Compound 28] | 
> 1000 | > 1000 | > 1000 | > 1000 | O=C1c2ccccc2S(=O)(=O)N1c1ccccc1 [Compound 29] | 
> 1000 | 0.24 |  | > 1000 | O=C(O)c1ccccc1S(=O)(=O)Nc1ccc([N+](=O)[O-])cc1 [Compound 24] | Ki (hCA IX): 0.24 µM; Ki (hCA II): 66.9 µM
> 1000 | 869 | > 1000 | > 1000 | O=C1c2ccccc2S(=O)(=O)N1c1ccc(Br)cc1 [Compound 33] | 
> 1000 | 538 | 76.4 | > 1000 | O=C1c2ccccc2S(=O)(=O)N1Cc1cn(-c2ccc(Br)cc2)nn1 [Compound 43] | 
> 1000 | 6.7 | 689 | > 1000 | COC(=O)c1ccccc1S(=O)(=O)Nc1ccc(Br)cc1 [Compound 9] | 
> 1000 | 640 |  | > 1000 | O=C1c2ccccc2S(=O)(=O)N1c1ccccc1Cl [Compound 31] | Ki (hCA II): 478 µM
> 1000 | 759 | 80.8 | > 1000 | O=C1c2ccccc2S(=O)(=O)N1Cc1cn(-c2ccc(Cl)cc2)nn1 [Compound 42] | 
> 1000 | > 1000 | > 1000 | > 1000 | O=C1c2ccccc2S(=O)(=O)N1c1ccc(Cl)cc1 [Compound 32] | 
> 1000 | 68.2 | > 1000 | > 1000 | COC(=O)c1ccccc1S(=O)(=O)Nc1ccc(C)cc1 [Compound 13] | 
> 1000 | 0.3 | > 1000 |  | O=C1c2ccccc2S(=O)(=O)N1Cc1ccccc1Cl [Compound 2] | inhibitory activity against hCA I, in words (hCA I): ineffective; inhibitory activity against hCA II, in words (hCA II): ineffective; Ki (hCA XII): 0.22 µM
> 100 | 20.9 | > 100 |  | O=C1c2ccccc2S(=O)(=O)N1Cc1cn(Cc2ccccc2)nn1 [Compound 46] | Ki (hCA IX): 20.9 µM and 7.4 µM; Ki (hCA XII): 7.4 µM
 |  |  |  | CC(C)=CCN1C(=O)C=C(C)OS1(=O)=O [Compound 50] | Ki (hCA I; [1]): > 1000 µM; Ki (hCA IX; [1]): 0.33 µM; Ki (hCA II; [1]): > 1000 µM; Ki (hCA XII; [1]): 0.24 µM
> 1000 | > 1000 | > 1000 | > 1000 | Cc1ccc(-n2cc(CNS(=O)(=O)c3ccccc3C(=O)O)nn2)cc1 [Compound 48] | inhibitory activity against hCA I, in words (hCA I): ineffective; inhibitory activity against hCA IX, in words (hCA IX): ineffective; inhibitory activity against hCA II, in words (hCA II): ineffective; inhibitory activity against hCA XII, in words (hCA XII): ineffective
> 1000 | 72.8 | > 1000 | > 1000 | O=C(O)c1ccccc1S(=O)(=O)Nc1ccc(Br)cc1 [Compound 21] | 
> 1000 | > 1000 | > 1000 | > 1000 | O=C(O)c1ccccc1S(=O)(=O)Nc1ccccc1Cl [Compound 19] | 
> 1000 | 0.1 | > 1000 |  | O=C1c2ccccc2S(=O)(=O)N1Cc1cccc(Cl)c1 [Compound 3] | inhibitory activity against hCA I, in words (hCA I): ineffective; Ki (hCA IX): 0.3 µM; inhibitory activity against hCA II, in words (hCA II): ineffective; Ki (hCA XII): 1.3 µM
> 1000 | 84.8 | > 1000 | > 1000 | O=C(O)c1ccccc1S(=O)(=O)Nc1ccc(C(F)(F)F)cc1 [Compound 22] | 
